Measured values taken from patent US6025370A, “Quinolonecarboxylic acid derivatives or salts thereof” (Toyama Chemical Co., Ltd., priority 1996, dated 2000).
In brackets after ≈: the same amount, converted by molar mass. Read-outs that look alike come from different tables or passages of the source.

Experiments:
[1] = system: S. aureus F-137; experiment: Antibacterial activity (MIC), S. aureus F-137 (β-lactamase-producing); assay type: cell-based; settings: 10^6 cells/plate, 37° C., 20 hours
Protocol: (§1) According to the standard method of Japan Society of Chemotherapy [CHEMOTHERAPY, vol. 29, No. 1, pages 76-79 (1981)], a loopful of a cell suspension obtained by culturing in Mueller Hinton broth (mfd. by Difco) at 37° C. for 20 hours and adjusted to a concentration of 10^6 cells/plate (10^8 cells/ml) was inoculated into a Mueller Hinton agar medium (mfd. by Difco) containing the test compound, followed by incubation at 37° C. for 20 hours. […] In Table 1, *1 to *4 denote the following strains:
2: β-lactamase-producing S. aureus

[2] = system: S. aureus FDA209P; experiment: Antibacterial activity (MIC), S. aureus FDA209P; assay type: cell-based, Staphylococcus aureus
Protocol: (§2) According to the standard method of Japan Society of Chemotherapy [CHEMOTHERAPY, vol. 29, No. 1, pages 76-79 (1981)], a loopful of a cell suspension obtained by culturing in Mueller Hinton broth (mfd. by Difco) at 37° C. for 20 hours and adjusted to a concentration of 10^6 cells/plate (10^8 cells/ml) was inoculated into a Mueller Hinton agar medium (mfd. by Difco) containing the test compound, followed by incubation at 37° C. for 20 hours. […]

[3] = system: E. coli NIHJ JC-2; experiment: Antibacterial activity (MIC), E. coli NIHJ JC-2; assay type: cell-based, Escherichia coli
Protocol: as §2

[4] = system: S. aureus F-597; experiment: Antibacterial activity (MIC), S. aureus F-597 (methicillin-resistant); assay type: cell-based; settings: Mueller Hinton agar, 10^6 cells/plate, 37° C.
Protocol: as §1
3: methicillin-resistant S. aureus

[5] = in vivo; settings: mouse, intravenous, ddy strain mice, solution in 0.1 N aqueous sodium hydroxide, read-out: median lethal dose (LD50)
Protocol: Each test compound was intravenously administered to groups of 4 ddy strain mice (body weight: 30±1 g) each, whereby its acute toxicity was investigated. In this case, the compound was administered in the form of a solution prepared by dissolving the compound in a 0.1 N aqueous sodium hydroxide solution.

[6] = Staphylococcus aureus, F137, Mueller Hinton agar, read-out: MIC
[7] = Staphylococcus aureus, S. aureus FDA209P, Mueller Hinton agar, 10^6 cells/plate, 37° C., 20 hours, read-out: MIC
[8] = Escherichia coli, NIHJJC2, E. coli NIHJ JC-2, Mueller Hinton agar, 10^6 cells/plate, 37° C., 20 hours, read-out: MIC
[9] = Staphylococcus aureus, F597, 20 h, read-out: MIC

Row | SMILES | MIC [1, 6] [µg/mL] | MIC [2, 7] [µg/mL] | MIC [3, 8] [µg/mL] | MIC [4, 9] [µg/mL] | LD50 [5] [mg/kg] | MIC ([4]; 20 hours) [µg/mL] | MIC ([2]; Staphylococcus aureus, FDA209P, 20 h) [µg/mL] | MIC ([3]; Escherichia coli, NIHJJC2, 20 h) [µg/mL] | MIC ([1]; Mueller Hinton agar) [µg/mL] | MIC ([2]; S. aureus FDA209P, Mueller Hinton agar, 10^6 cells/plate, 37° C., 20 hours) [µg/mL] | MIC ([3]; E. coli NIHJ JC-2, Mueller Hinton agar, 10^6 cells/plate, 37° C., 20 hours) [µg/mL]
1 | Cc1c(-c2cc(F)c3c(c2)CNC3)ccc2c(=O)c(C(=O)O)cn(C3CC3)c12 [b, 1-Cyclopropyl-7-(7-fluoroisoindolin-5-yl)-8-methyl-1,4-dihydro-4-oxoquinoline-3-carboxylic acid] | ≤ 0.05 | ≤ 0.05 | ≤ 0.05 | ≤ 0.05 |  |  |  |  |  |  | 
2 | O=C(O)c1cn(C2CC2)c2c(OC(F)F)c(-c3ccc4c(c3)CNC4)ccc2c1=O [e, 1-Cyclopropyl-8-difluoromethoxy-7-(isoindolin-5-yl)-1,4-dihydro-4-oxoquinoline-3-carboxylic acid] | ≤ 0.05 | ≤ 0.05 | ≤ 0.05 | 0.1 (≈ 0.242 µM) | ≥ 200 |  |  |  |  |  | 
3 | COc1c(-c2cc(F)c3c(c2)CNC3)ccc2c(=O)c(C(=O)O)cn(C3CC3)c12 [d, 1-Cyclopropyl-7-(7-fluoroisoindolin-5-yl)-8-methoxy-1,4-dihydro-4-oxoquinoline-3-carboxylic acid] | ≤ 0.05 | ≤ 0.05 | ≤ 0.05 | ≤ 0.05 |  |  |  |  |  |  | 
4 | CC1NCc2cc(-c3ccc4c(=O)c(C(=O)O)cn(C5CC5)c4c3OC(F)F)ccc21 (racemic) [g, (±)-1-Cyclopropyl-8-difluoromethoxy-7-(1-methyliso-indolin-5-yl)-1,4-dihydro-4-oxoquinoline-3-carboxylic acid] | ≤ 0.05 | ≤ 0.05 | ≤ 0.05 | 0.1 (≈ 0.235 µM) | ≥ 200 |  |  |  |  |  | 
5 | COc1c(-c2ccc3c(c2)CNC3)ccc2c(=O)c(C(=O)O)cn(C3CC3)c12 [c, 1-Cyclopropyl-7-(isoindolin-5-yl)-8-methoxy-1,4-dihydro-4-oxoquinoline-3-carboxylic acid] | ≤ 0.05 | ≤ 0.05 | ≤ 0.05 | 0.1 (≈ 0.266 µM) |  |  |  |  |  |  | 
6 | CC1NCc2cc(-c3ccc4c(=O)c(C(=O)O)cn(C5CC5)c4c3OC(F)F)ccc21 (single isomer, unassigned; (+)) [h, (+)-1-Cyclopropyl-8-difluoromethoxy-7-(1-methyliso-indolin-5-yl)-1,4-dihydro-4-oxoquinoline-3-carboxylic acid] | ≤ 0.05 | ≤ 0.05 | ≤ 0.05 |  |  | 0.2 (≈ 0.469 µM) |  |  |  |  | 
7 | Cc1c(-c2ccc3c(c2)CNC3)ccc2c(=O)c(C(=O)O)cn(C3CC3)c12 [a, 1-Cyclopropyl-7-(isoindolin-5-yl)-8-methyl-1,4-dihydro-4-oxoquinoline-3-carboxylic acid] | ≤ 0.05 | ≤ 0.05 | ≤ 0.05 | 0.1 (≈ 0.277 µM) |  |  |  |  |  |  | 
8 | O=C(O)c1cn(C2CC2)c2cc(N3CCNCC3)c(F)cc2c1=O [j, 1-Cyclopropyl-6-fluoro-7-(1-piperazinyl)-1,4-dihydro-4-oxoquinoline-3-carboxylic acid, reference compound] |  |  |  |  |  |  | 0.2 (≈ 0.604 µM) | ≤ 0.05 |  |  | 
9 | O=C(O)c1cn(C2CC2)c2c(OC(F)F)c(-c3cc(F)c4c(c3)CNC4)ccc2c1=O [f, 1-Cyclopropyl-8-difluoromethoxy-7-(7-fluoroiso-indolin-5-yl)-1,4-dihydro-4-oxoquinoline-3-carboxylic acid] | ≤ 0.05 | ≤ 0.05 | ≤ 0.05 | ≤ 0.05 |  |  |  |  |  |  | 
10 | CC1NCc2cc(-c3ccc4c(=O)c(C(=O)O)cn(C5CC5)c4c3OC(F)F)ccc21 (single isomer, unassigned; (-)) [i, (-)-1-Cyclopropyl-8-difluoromethoxy-7-(1-methyliso-indolin-5-yl)-1,4-dihydro-4-oxoquinoline-3-carboxylic acid] |  |  |  |  | ≥ 200 | ≤ 0.05 |  |  | ≤ 0.05 | ≤ 0.05 | ≤ 0.05
